Results: US20250154115A1, “ARYLBENZOISOXAZOLE COMPOUNDS AS IP6K AND IPMK INHIBITORS AND METHODS OF USE THEREOF” (THE UNIVERSITY OF NORTH CAROLINA AT CHAPEL HILL, priority 2022, published 2025)
One block for each molecule: values may come before it.

Assays:
Assay type in all cases: biochemical
IP6K1 = IP6K1 (Homo sapiens (Human), UniProt Q92551); assay: Enzyme-coupled assay of IP6K1 activity (Dipp1-coupled, malachite green Pi release)
Description: (§1) […] The cells were disrupted using a constant cell disruption system (Constant Systems) under 20 kPsi.
(§2) Pi release was determined with a malachite green colorimetric assay.^45 Where indicated, TNP (Cayman Chemical) was added to the assays (FIG. 2A-E).

IP6K2 = IP6K2 (Homo sapiens (Human), UniProt Q9UHH9); assay: Enzyme-coupled assay of IP6K2 activity (Dipp1-coupled, malachite green Pi release)
Description: as §1, §2

IPMK = IPMK (Homo sapiens (Human), UniProt Q8NFU5); assay: Enzyme-coupled assay, IPMK IC50
[1] = determined from enzyme-coupled assays

Chain of IP6K2 (Q9UHH9 whole entry): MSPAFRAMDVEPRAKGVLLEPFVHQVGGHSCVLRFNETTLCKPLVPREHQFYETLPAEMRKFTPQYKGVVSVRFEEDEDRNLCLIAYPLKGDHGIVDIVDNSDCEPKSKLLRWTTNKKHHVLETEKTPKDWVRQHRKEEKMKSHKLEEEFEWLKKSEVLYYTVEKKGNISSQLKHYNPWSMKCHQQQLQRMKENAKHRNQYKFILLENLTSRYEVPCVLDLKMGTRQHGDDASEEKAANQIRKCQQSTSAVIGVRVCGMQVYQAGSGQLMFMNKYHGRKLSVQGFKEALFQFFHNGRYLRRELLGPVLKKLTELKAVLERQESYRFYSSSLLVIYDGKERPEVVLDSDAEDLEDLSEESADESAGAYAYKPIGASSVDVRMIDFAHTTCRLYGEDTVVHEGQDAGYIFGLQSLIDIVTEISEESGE
Chain of IP6K1 (Q92551 whole entry): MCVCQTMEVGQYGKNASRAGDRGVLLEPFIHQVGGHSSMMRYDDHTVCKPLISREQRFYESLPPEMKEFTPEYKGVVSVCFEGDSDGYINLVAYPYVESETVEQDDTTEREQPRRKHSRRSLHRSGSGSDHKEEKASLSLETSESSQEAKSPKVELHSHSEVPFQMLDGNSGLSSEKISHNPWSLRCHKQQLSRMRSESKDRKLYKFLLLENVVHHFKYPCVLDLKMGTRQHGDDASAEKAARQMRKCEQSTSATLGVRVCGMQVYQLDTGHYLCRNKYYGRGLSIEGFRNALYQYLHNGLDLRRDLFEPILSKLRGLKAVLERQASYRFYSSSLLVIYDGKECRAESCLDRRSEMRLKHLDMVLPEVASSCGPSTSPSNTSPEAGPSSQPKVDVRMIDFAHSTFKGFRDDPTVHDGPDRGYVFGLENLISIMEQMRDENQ
Chain of IPMK (Q8NFU5 whole entry, species assumed): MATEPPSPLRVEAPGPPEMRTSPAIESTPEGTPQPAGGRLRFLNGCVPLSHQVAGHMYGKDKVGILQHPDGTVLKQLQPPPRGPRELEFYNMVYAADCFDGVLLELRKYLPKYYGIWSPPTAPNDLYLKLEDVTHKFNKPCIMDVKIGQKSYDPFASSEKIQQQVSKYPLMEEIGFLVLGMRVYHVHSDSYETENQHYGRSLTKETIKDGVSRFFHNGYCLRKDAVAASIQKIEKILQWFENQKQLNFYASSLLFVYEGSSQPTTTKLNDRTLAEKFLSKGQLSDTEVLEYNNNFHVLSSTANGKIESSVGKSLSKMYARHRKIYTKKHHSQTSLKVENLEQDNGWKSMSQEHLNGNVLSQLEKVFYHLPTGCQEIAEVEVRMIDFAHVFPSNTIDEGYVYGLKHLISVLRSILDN

Structure (SMILES): CC1(COc2cccc(-c3onc4ccc(-c5nnn[nH]5)cc34)c2)COC1 [Cmpd 91]
IC50 (IP6K1; enzyme-coupled assay, Table 4): 10 to 100 nM
IC50 (IP6K2; enzyme-coupled assay, Table 4): 10 to 100 nM

Structure (SMILES): O=c1[nH]c(-c2ccc3noc(-c4cccc(Oc5ncc(Cl)cc5Cl)c4)c3c2)no1 [Cmpd 127]
IC50 (IP6K1; [1]): 10 to 100 nM
IC50 (IPMK; [1]): 10 to 100 nM
IC50 (IP6K2; [1]): 10 to 100 nM

Structure (SMILES): CC(C)(C)OC(=O)N1CCC(Oc2cccc(-c3onc4ccc(-c5noc(=O)[nH]5)cc34)c2)CC1 [Cmpd 128]
IC50 (IP6K1; [1]): 10 to 100 nM
IC50 (IPMK; [1]): 10 to 100 nM
IC50 (IP6K2; [1]): 10 to 100 nM

Structure (SMILES): O=c1[nH]c(-c2ccc3noc(-c4cccc(OC5CCNCC5)c4)c3c2)no1 [Cmpd 129]
IC50 (IP6K1; [1]): 10 to 100 nM
IC50 (IPMK; [1]): < 10 nM
IC50 (IP6K2; [1]): 10 to 100 nM

Structure (SMILES): O=C(Nc1ccc(-c2onc3ccc(-c4noc(=O)[nH]4)cc23)cc1)C1CCCC1 [Cmpd 130]
IC50 (IP6K1; [1]): < 10 nM
IC50 (IPMK; [1]): 10 to 100 nM
IC50 (IP6K2; [1]): < 10 nM

Structure (SMILES): CN1CCC(Oc2cccc(-c3onc4ccc(-c5noc(=O)[nH]5)cc34)c2)CC1 [Cmpd 131]
IC50 (IP6K1; [1]): 100 to 1000 nM
IC50 (IPMK; [1]): 100 to 1000 nM
IC50 (IP6K2; [1]): 100 to 1000 nM

Structure (SMILES): O=c1[nH]c(-c2ccc3noc(-c4cccc(OC5CCN(CC6CC6)CC5)c4)c3c2)no1 [Cmpd 132]
IC50 (IP6K1; [1]): 100 to 1000 nM
IC50 (IPMK; [1]): 10 to 100 nM
IC50 (IP6K2; [1]): 100 to 1000 nM

Structure (SMILES): O=c1[nH]c(-c2ccc3noc(-c4cccc(OC5CCN(C6CCC6)CC5)c4)c3c2)no1 [Cmpd 133]
IC50 (IP6K1; [1]): 100 to 1000 nM
IC50 (IPMK; [1]): 10 to 100 nM
IC50 (IP6K2; [1]): 100 to 1000 nM

Structure (SMILES): O=c1[nH]c(-c2ccc3noc(-c4cccc(OC5CCN(C6COC6)CC5)c4)c3c2)no1 [Cmpd 134]
IC50 (IP6K1; [1]): 100 to 1000 nM
IC50 (IPMK; [1]): 100 to 1000 nM
IC50 (IP6K2; [1]): 100 to 1000 nM

Structure (SMILES): O=c1[nH]c(-c2ccc3noc(-c4cccc(OC5CCN(CCO)CC5)c4)c3c2)no1 [Cmpd 135]
IC50 (IP6K1; [1]): 100 to 1000 nM
IC50 (IPMK; [1]): 10 to 100 nM
IC50 (IP6K2; [1]): 100 to 1000 nM

Structure (SMILES): O=C(Nc1ccc(-c2onc3ccc(-c4noc(=O)[nH]4)cc23)cc1)[C@@H]1CCCN1 [Cmpd 136]
IC50 (IP6K1; [1]): 100 to 1000 nM
IC50 (IPMK; [1]): 10 to 100 nM
IC50 (IP6K2; [1]): 100 to 1000 nM

Structure (SMILES): O=C(Nc1ccc(-c2onc3ccc(-c4noc(=O)[nH]4)cc23)cc1)C1CNC1 [Cmpd 137]
IC50 (IP6K1; [1]): 100 to 1000 nM
IC50 (IPMK; [1]): 100 to 1000 nM
IC50 (IP6K2; [1]): 1000 to 100000 nM

Structure (SMILES): O=C(C1CC1)N1CCC(Oc2cccc(-c3onc4ccc(-c5noc(=O)[nH]5)cc34)c2)CC1 [Cmpd 138]
IC50 (IP6K1; [1]): 100 to 1000 nM
IC50 (IPMK; [1]): 10 to 100 nM
IC50 (IP6K2; [1]): 10 to 100 nM

Structure (SMILES): CC1(C(=O)N2CCC(Oc3cccc(-c4onc5ccc(-c6noc(=O)[nH]6)cc45)c3)CC2)COC1 [Cmpd 139]
IC50 (IP6K1; [1]): 100 to 1000 nM
IC50 (IPMK; [1]): 100 to 1000 nM
IC50 (IP6K2; [1]): 10 to 100 nM

Structure (SMILES): CCOC(=O)/C=C/c1ccc2noc(-c3ccccc3)c2c1 [Compound 7]
IC50 (IP6K1; enzyme-coupled assay, Table 1): 1000 to 100000 nM
IC50 (IP6K2; enzyme-coupled assay, Table 1): 1000 to 100000 nM

Structure (SMILES): COc1ccc(-c2onc3ccc(/C=C/C(=O)O)cc23)cc1 [Compound 13]
IC50 (IP6K1; enzyme-coupled assay, Table 1): 100 to 1000 nM
IC50 (IP6K2; enzyme-coupled assay, Table 1): 1000 to 100000 nM

Structure (SMILES): CNC(=O)c1ccc2noc(-c3ccccc3)c2c1 [Compound 21]
IPMK IC50 (IPMK; enzyme-coupled assay, Table 2): −

Structure (SMILES): O=C(O)c1ccc2noc(-c3ccc(OC(F)(F)F)cc3)c2c1 [Compound 23]
IC50 (IP6K1; enzyme-coupled assay, Table 2): 1000 to 100000 nM
IC50 (IP6K2; enzyme-coupled assay, Table 2): 100 to 1000 nM

Structure (SMILES): O=C(O)c1ccc2noc(-c3cccc(-c4cncc(O)c4)c3)c2c1 [Compound 53]
IC50 (IP6K1; enzyme-coupled assay, Table 2): 100 to 1000 nM
IC50 (IP6K2; enzyme-coupled assay, Table 2): 100 to 1000 nM

Structure (SMILES): O=C(O)c1ccc2noc(-c3ccc(-c4cccnc4)cc3)c2c1 [Compound 57]
IC50 (IPMK; enzyme-coupled assay, Table 3): 10 to 100 nM

Structure (SMILES): c1cc(OC2CCN(C3CCC3)CC2)cc(-c2onc3ccc(-c4nnn[nH]4)cc23)c1 [Compound 62]
IC50 (IPMK; enzyme-coupled assay, Table 4): 10 to 100 nM
IC50 (IP6K2; enzyme-coupled assay, Table 4): 100 to 1000 nM

Structure (SMILES): c1cc(OC2CNC2)cc(-c2onc3ccc(-c4nnn[nH]4)cc23)c1 [Compound 92]
IC50 (IP6K1; enzyme-coupled assay, Table 4): 10 to 100 nM
IC50 (IP6K2; enzyme-coupled assay, Table 4): 10 to 100 nM

Structure (SMILES): CC1(C(=O)N2CCC(Oc3cccc(-c4onc5ccc(-c6nnn[nH]6)cc45)c3)CC2)COC1 [Compound 93]
IC50 (IP6K1; enzyme-coupled assay, Table 4): 100 to 1000 nM
IC50 (IP6K2; enzyme-coupled assay, Table 4): 10 to 100 nM

Structure (SMILES): O=C(C1CCCC1)N1CCC(Oc2cccc(-c3onc4ccc(-c5nnn[nH]5)cc34)c2)CC1 [Compound 94]
IC50 (IP6K1; enzyme-coupled assay, Table 4): 10 to 100 nM
IC50 (IP6K2; enzyme-coupled assay, Table 4): 10 to 100 nM

Structure (SMILES): Nc1cccc(-c2ccc(-c3onc4ccc(-c5nnn[nH]5)cc34)cc2)c1 [Compound 95]
IC50 (IP6K1; enzyme-coupled assay, Table 4): 10 to 100 nM
IC50 (IP6K2; enzyme-coupled assay, Table 4): 10 to 100 nM

Structure (SMILES): CC(C)(C)OC(=O)Nc1cccc(-c2cccc(-c3onc4ccc(-c5nnn[nH]5)cc34)c2)c1 [Compound 96]
IC50 (IP6K1; enzyme-coupled assay, Table 4): 10 to 100 nM
IC50 (IP6K2; enzyme-coupled assay, Table 4): 10 to 100 nM

Structure (SMILES): Nc1cccc(-c2cccc(-c3onc4ccc(-c5nnn[nH]5)cc34)c2)c1 [Compound 97]
IC50 (IP6K1; enzyme-coupled assay, Table 4): 10 to 100 nM
IC50 (IP6K2; enzyme-coupled assay, Table 4): 10 to 100 nM

Structure (SMILES): O=C(Nc1ccc(-c2onc3ccc(-c4nnn[nH]4)cc23)cc1)C1CCCCC1 [Compound 98]
IC50 (IP6K1; enzyme-coupled assay, Table 4): 100 to 1000 nM

Structure (SMILES): O=C(Nc1ccc(-c2onc3ccc(-c4nnn[nH]4)cc23)cc1)C1CCNCC1 [Compound 99]
IC50 (IP6K1; enzyme-coupled assay, Table 4): 100 to 1000 nM

Structure (SMILES): O=C(Nc1ccc(-c2onc3ccc(-c4nnn[nH]4)cc23)cc1)[C@@H]1CCCN1 [Compound 100]
IC50 (IP6K1; enzyme-coupled assay, Table 4): 100 to 1000 nM

Structure (SMILES): O=C(Nc1ccc(-c2onc3ccc(-c4nnn[nH]4)cc23)cc1)C1CCNC1 (stereo not shown) [Compound 101]
IC50 (IP6K1; enzyme-coupled assay, Table 4): 100 to 1000 nM

Structure (SMILES): c1cc(-c2onc3ccc(-c4nnn[nH]4)cc23)cc(C2CCNCC2)c1 [Compound 104]
IC50 (IP6K1; enzyme-coupled assay, Table 4): 100 to 1000 nM

Structure (SMILES): CC(=O)N1CCC(c2cccc(-c3onc4ccc(-c5nnn[nH]5)cc34)c2)CC1 [Compound 106]
IC50 (IP6K1; enzyme-coupled assay, Table 4): 10 to 100 nM

The next lines start with the values.

IC50 (IP6K1; enzyme-coupled assay, Table 4): 10 to 100 nM
Structure (SMILES): c1cc(-c2onc3ccc(-c4nnn[nH]4)cc23)cc(C2CCN(CC3CC3)CC2)c1 [Compound 107]

IC50 (IP6K1; enzyme-coupled assay, Table 4): 100 to 1000 nM
Structure (SMILES): CC1(C(=O)N2CCC(c3cccc(-c4onc5ccc(-c6nnn[nH]6)cc45)c3)CC2)COC1 [Compound 108]

IC50 (IP6K1; enzyme-coupled assay, Table 4): 10 to 100 nM
Structure (SMILES): CC(C)C(=O)N1CCC(c2cccc(-c3onc4ccc(-c5nnn[nH]5)cc34)c2)CC1 [Compound 109]

IC50 (IP6K1; enzyme-coupled assay, Table 4): 10 to 100 nM
Structure (SMILES): O=C1CC(C(=O)N2CCC(c3cccc(-c4onc5ccc(-c6nnn[nH]6)cc45)c3)CC2)C1 [Compound 110]

IC50 (IP6K1; enzyme-coupled assay, Table 4): 10 to 100 nM
Structure (SMILES): O=C(C1CC1)N1CCC(c2cccc(-c3onc4ccc(-c5nnn[nH]5)cc34)c2)CC1 [Compound 111]

IC50 (IP6K1; enzyme-coupled assay, Table 4): 10 to 100 nM
Structure (SMILES): O=C(N1CCC(c2cccc(-c3onc4ccc(-c5nnn[nH]5)cc34)c2)CC1)C1(F)CC1 [Compound 112]

IC50 (IP6K1; enzyme-coupled assay, Table 4): 100 to 1000 nM
Structure (SMILES): c1cc(-c2onc3ccc(-c4nnn[nH]4)cc23)cc(C2CCN(C3CC4(CCC4)C3)CC2)c1 [Compound 113]

IC50 (IP6K1; enzyme-coupled assay, Table 4): 100 to 1000 nM
Structure (SMILES): c1cc(-c2onc3ccc(-c4nnn[nH]4)cc23)cc(C2CCN(C3CCCC3)CC2)c1 [Compound 114]

IC50 (IP6K1; enzyme-coupled assay, Table 4): 100 to 1000 nM
Structure (SMILES): CC(C)(C)OC(=O)N1CC(C(=O)N2CCC(c3cccc(-c4onc5ccc(-c6nnn[nH]6)cc45)c3)CC2)C1 [Compound 115]

IC50 (IP6K1; enzyme-coupled assay, Table 4): 100 to 1000 nM
Structure (SMILES): CC(C)(C)OC(=O)N1CCCC1C(=O)N1CCC(c2cccc(-c3onc4ccc(-c5nnn[nH]5)cc34)c2)CC1 (stereo not shown) [Compound 116]

IC50 (IP6K1; enzyme-coupled assay, Table 4): 100 to 1000 nM
Structure (SMILES): c1cc2noc(-c3ccc(C4CCNCC4)cc3)c2cc1-c1nnn[nH]1 [Compound 117]

IC50 (IP6K1; enzyme-coupled assay, Table 4): 10 to 100 nM
Structure (SMILES): c1cc2noc(-c3ccc(C4CCN(C5CCC5)CC4)cc3)c2cc1-c1nnn[nH]1 [Compound 118]

IC50 (IP6K1; enzyme-coupled assay, Table 4): 100 to 1000 nM
Structure (SMILES): CC(=O)N1CCC(c2ccc(-c3onc4ccc(-c5nnn[nH]5)cc34)cc2)CC1 [Compound 119]

IC50 (IP6K1; enzyme-coupled assay, Table 4): 100 to 1000 nM
Structure (SMILES): CC(C)C(=O)N1CCC(c2ccc(-c3onc4ccc(-c5nnn[nH]5)cc34)cc2)CC1 [Compound 120]

IC50 (IP6K1; enzyme-coupled assay, Table 4): 100 to 1000 nM
Structure (SMILES): CC1(C(=O)N2CCC(c3ccc(-c4onc5ccc(-c6nnn[nH]6)cc45)cc3)CC2)COC1 [Compound 121]

IC50 (IP6K1; enzyme-coupled assay, Table 4): 100 to 1000 nM
Structure (SMILES): O=C(C1CC1)N1CCC(c2ccc(-c3onc4ccc(-c5nnn[nH]5)cc34)cc2)CC1 [Compound 122]

IC50 (IP6K1; enzyme-coupled assay, Table 4): 100 to 1000 nM
Structure (SMILES): O=C(N1CCC(c2ccc(-c3onc4ccc(-c5nnn[nH]5)cc34)cc2)CC1)C1(F)CC1 [Compound 123]
